Source: US10071098B2, “Compositions useful for treating herpes simplex labialis and/or herpes esophagitis, and methods using same” (DREXEL UNIVERSITY, priority 2014, dated 2018)

Assays:
HSV-1 = experiment: In vivo model of HSV-1 lip infection (herpes simplex labialis) in mice; conditions: BALB/c mice infected on the lower lip; applied every 4 hours for first 12 hours, then every 8 hours for 5 days; FIGS. 13A-13B
Experimental: KU-55933 and Chk2 Inhibitor II were also efficacious at reducing HSV-1 in an in vivo model of infection (FIGS. 13A-13B). BALB/c mice were infected with HSV-1 on the lower lip, and KU-55933 or Chk2 Inhibitor II was applied every 4 hours for the first 12 hours post infection followed by treatments every 8 hours for the next 5 days. The mice were scored based on the severity of the symptoms, and tracked over the course of infection.

[1] = system: acyclovir-resistant strain of HSV-1, dlspTK; experiment: Replication of acyclovir-resistant HSV-1 in OKF6 cells; format: cell-based; conditions: MOI=0.1, FIGS. 12A-12B
HSV-1 strain KOS [2] = experiment: HSV-1 replication in OKF6 cells (qPCR genome copy number and viral yield); format: cell-based; conditions: for HSV-1 replication over time course of lytic infection (genome copy number, viral yield): MOI=0.1, FIGS. 8A-8B; for HSV-1 replication as measured by qPCR and viral yield, dose dependence: MOI=0.1, analysis at 20 hours post infection, FIGS. 7A-7C; for effect on reducing HSV-1 replication when combined with acyclovir: low dose of inhibitor combined with low doses of acyclovir, MOI=0.1, FIGS. 11A-11B
Experimental: (§1) All cells were cultured at 37° C. and 5% CO2 and supplemented with 100 U/mL penicillin and 100 U/mL streptomycin. OKF6/TERT2 human oral mucosal keratinocyte cells were cultured in GIBCO Keratinocyte serum free medium (K-sfm) supplemented with bovine pituitary extract, epidermal growth factor, and calcium chloride (Life Technologies Carlsbad, Calif.). These cells are immortalized by expression of hTERT (Dickson, et al., 2000, Mol. Cell. Biol. 20(4):1436-1447). EPC2 human esophageal epithelial cells were cultured in K-sfm (Carlsbad, Calif.). KOS strain (Smith, Proc. Soc. Exp. Biol. Med. Soc. Exp. Biol. Med. 115:814-816) of HSV-1 was used in all infections. All viral stocks were titered on CV-1 monolayers.
(§2) Subconfluent monolayers of cells were grown in six-well plates. Drug treatments were administered 60 minutes prior to infection and continued for the entire duration of each experiment. Infections with KOS strain of HSV-1 were carried out in six-well plates in a 200 μL inoculum volume at 37° C. for 1 hour with intermittent rocking. The cells were then rinsed and overlaid with fresh medium.
(§3) Unless indicated otherwise, KU-55933 (Batch No. 5, 99.7% purity; Tocris Bioscience, Bristol, UK) and Chk2 Inhibitor II (Sigma-Aldrich, St. Louis, Mo.) were used at 10 μM final concentration, phosphonoacetic acid (PAA) at 400 μg/mL (Sigma-Aldrich, St. Louis, Mo.), and acyclovir at 50 μg/mL (Sigma-Aldrich). KU-55933 and Chk2 Inhibitor II were dissolved in dimethyl sulfoxide (DMSO), and the final concentration of DMSO for KU-55933, Chk2 Inhibitor II, and mock treatments for all in vitro experiments was 0.1%.
(§4) Viral genome replication and transcription were measured by quantitative PCR (qPCR). Total DNA and RNA from infected cells were isolated using the DNeasy Blood & Tissue Kit and the RNeasy Mini Kit, respectively (QIAGEN, Hilden, Germany). RNA was converted to cDNA using qScript (Quanta BioSciences, Gaithersburg, Md.). Real-time qPCR was performed with SYBR Green (Bio-Rad, Hercules, Calif.). Target primers for UL30 (DNA polymerase catalytic subunit) and reference primers for glyceraldehyde 3-phosphate dehydrogenase (GAPDH) were used to measure genome replication. Transcription of the three gene families was measured with primers for RL2 (ICP0), UL30 (DNA polymerase catalytic subunit), UL23 (thymidine kinase), and UL44 (gC), with reference primers for the 18S ribosomal RNA (rRNA).

HSV-1 strain KOS [3] = experiment: Transcription of HSV-1 genes in infected OKF6 cells (qPCR); format: cell-based; conditions: for effect on viral early factor thymidine kinase: MOI=0.1, FIGS. 9C-9E; for transcription of true-late gene gC: qPCR, MOI=0.1, FIG. 9E
Experimental: as §1, §2, §3, §4

HSV-1 strain KOS [4] = experiment: Protein synthesis of HSV-1 factors in infected OKF6 cells (Western blot); format: cell-based; conditions: for protein synthesis of HSV-1 early gene ICP8 / protein synthesis of HSV-1 immediate early gene ICP0 / protein synthesis of HSV-1 leaky-late gene gB / protein synthesis of HSV-1 true-late gene gC: MOI=5, FIGS. 9A-9B; for gC level, inhibitor applied before infection or up to 1 hour post infection / gC level, inhibitor applied between 2 to 3 hours post infection: MOI=5, FIGS. 10A-10B; for gC level, inhibitor applied 4 hours post infection: MOI=5, compared to wild type infection, FIGS. 10A-10B
Experimental: as §1
Subconfluent monolayers of cells were grown in six-well plates. […] Infections with KOS strain of HSV-1 were carried out in six-well plates in a 200 μL inoculum volume at 37° C. for 1 hour with intermittent rocking. The cells were then rinsed and overlaid with fresh medium.
as §3
Standard protocol was followed for Western blot analysis. Cell lysates were collected in 200 μL Laemmli buffer, vortexed, and boiled at 95° C. for 5 minutes. Protein concentrations were measured by bicinchoninic acid (BCA) assay. SDS-PAGE was followed by transfer onto a polyvinylidene difluoride (PVDF) membrane, which was then blocked in 5% BSA. Primary antibodies against the following proteins were used: ICP0 (mouse monoclonal; Virusys Corporation, Taneytown, Md.), ICP4 and nucleolin (both mouse monoclonal; Santa Cruz Biotechnology, Santa Cruz, Calif.), ICP8 (rabbit polyclonal), glycoprotein B and C (mouse monoclonal and rabbit polyclonal, respectively), ATM and pATM S1981 (rabbit polyclonal and mouse monoclonal, respectively; Rockland), Chk2 and pChk2 T68 (rabbit polyclonal and mouse monoclonal, respectively; Cell Signaling). Blots were stained with secondary antibodies and visualized with the Odyssey near-infrared system (LI-COR, Lincoln, Nebr.).

ATM = ATM activation in HSV-1-infected OKF6 cells (Western blot); format: cell-based, human; conditions: MOI=5.0, FIG. 6
Experimental: All cells were cultured at 37° C. and 5% CO2 and supplemented with 100 U/mL penicillin and 100 U/mL streptomycin. OKF6/TERT2 human oral mucosal keratinocyte cells were cultured in GIBCO Keratinocyte serum free medium (K-sfm) supplemented with bovine pituitary extract, epidermal growth factor, and calcium chloride (Life Technologies Carlsbad, Calif.). […] KOS strain (Smith, Proc. Soc. Exp. Biol. Med. Soc. Exp. Biol. Med. 115:814-816) of HSV-1 was used in all infections. All viral stocks were titered on CV-1 monolayers.
Unless indicated otherwise, KU-55933 (Batch No. 5, 99.7% purity; Tocris Bioscience, Bristol, UK) and Chk2 Inhibitor II (Sigma-Aldrich, St. Louis, Mo.) were used at 10 μM final concentration, phosphonoacetic acid (PAA) at 400 μg/mL (Sigma-Aldrich, St. Louis, Mo.), and acyclovir at 50 μg/mL (Sigma-Aldrich). […]
Standard protocol was followed for Western blot analysis. […] Protein concentrations were measured by bicinchoninic acid (BCA) assay. […]

SMILES: NC(=O)c1ccc2[nH]c(-c3ccc(Oc4ccc(Cl)cc4)cc3)nc2c1 [Chk2 Inhibitor II, 2-(4-(4-chlorophenoxy)phenyl)-1H-benzimidazole-5-carboxamide]
- severity of symptoms (score) during the time course of infection (HSV-1): statistically significant decrease in the severity of symptoms
- replication (genome copy numbers) of acyclovir-resistant HSV-1 strain dlspTK [1]: greatly reduced replication
- HSV-1 replication over time course of lytic infection (genome copy number, viral yield) (HSV-1 strain KOS [2]): reduced HSV-1 replication throughout the entire time course of lytic infection
- HSV-1 replication as measured by qPCR and viral yield, dose dependence (HSV-1 strain KOS [2]): reduced HSV-1 replication in a dose dependent manner
- effect on reducing HSV-1 replication when combined with acyclovir (HSV-1 strain KOS [2]): additive to greater-than-additive effect
- effect on viral early factor thymidine kinase (HSV-1 strain KOS [3]): minimal effect
- transcription of true-late gene gC (HSV-1 strain KOS [3]): prevent the transcription
- protein synthesis of HSV-1 early gene ICP8 (HSV-1 strain KOS [4]): no impact
- protein synthesis of HSV-1 immediate early gene ICP0 (HSV-1 strain KOS [4]): no impact
- protein synthesis of HSV-1 leaky-late gene gB (HSV-1 strain KOS [4]): no impact
- protein synthesis of HSV-1 true-late gene gC (HSV-1 strain KOS [4]): large reduction
- gC level, inhibitor applied before infection or up to 1 hour post infection (HSV-1 strain KOS [4]): large reduction of gC
- gC level, inhibitor applied between 2 to 3 hours post infection (HSV-1 strain KOS [4]): Low levels of gC were produced
- gC level, inhibitor applied 4 hours post infection (HSV-1 strain KOS [4]): no impact on gC levels

SMILES: O=c1cc(-c2cccc3c2Sc2ccccc2S3)oc(N2CCOCC2)c1 [KU-55933, 2-(morpholin-4-yl)-6-(thianthren-1-yl)-pyran-4-one]
- severity of symptoms (score) during the time course of infection (HSV-1): statistically significant decrease in the severity of symptoms
- replication (genome copy numbers) of acyclovir-resistant HSV-1 strain dlspTK [1]: greatly reduced replication
- HSV-1 replication over time course of lytic infection (genome copy number, viral yield) (HSV-1 strain KOS [2]): reduced HSV-1 replication throughout the entire time course of lytic infection
- HSV-1 replication as measured by qPCR and viral yield, dose dependence (HSV-1 strain KOS [2]): reduced HSV-1 replication in a dose dependent manner
- effect on reducing HSV-1 replication when combined with acyclovir (HSV-1 strain KOS [2]): additive to greater-than-additive effect
- effect on viral early factor thymidine kinase (HSV-1 strain KOS [3]): minimal effect
- transcription of true-late gene gC (HSV-1 strain KOS [3]): reduction
- protein synthesis of HSV-1 early gene ICP8 (HSV-1 strain KOS [4]): no impact
- protein synthesis of HSV-1 immediate early gene ICP0 (HSV-1 strain KOS [4]): no impact
- protein synthesis of HSV-1 leaky-late gene gB (HSV-1 strain KOS [4]): no impact
- protein synthesis of HSV-1 true-late gene gC (HSV-1 strain KOS [4]): large reduction
- gC level, inhibitor applied before infection or up to 1 hour post infection (HSV-1 strain KOS [4]): large reduction of gC
- gC level, inhibitor applied between 2 to 3 hours post infection (HSV-1 strain KOS [4]): Low levels of gC were produced
- gC level, inhibitor applied 4 hours post infection (HSV-1 strain KOS [4]): no impact on gC levels
- ATM activation (ATM): inhibited ATM activation
